From patent US20210127673A1, “HERBICIDES” (SYNGENTA PARTICIPATIONS AG, priority 2016, published 2021)

Columns and labels:
Assay type in all cases: in vivo
Details in all cases: 1000 g/ha, evaluated after 13 days
[1] = test system: Triticum aestivium (TRZAW); assay: Pre-emergence herbicidal activity, Triticum aestivium; design: key: 5=total damage to plant; 0=no damage to plant
Experimental: (§1) Seeds of a variety of test species were sown in standard soil in pots: Triticum aestivium (TRZAW), Avena fatua (AVEFA), Alopecurus myosuroides (ALOMY), Echinochloa crus-galli (ECHCG), Lolium perenne (LOLPE), Zea Mays (ZEAMX), Abutilon theophrasti (ABUTH), Amaranthus retroflexus (AMARE) and Setaria faberi (SETFA). After cultivation for one day (pre-emergence) under controlled conditions in a glasshouse (at 24/16° C., day/night; 14 hours light; 65% humidity), the plants were sprayed with an aqueous spray solution derived from the formulation of the technical active ingredient in acetone/water (50:50) solution containing 0.5% Tween 20 (polyoxyethelyene sorbitan monolaurate, CAS RN 9005-64-5). The test plants were then grown in a glasshouse under controlled conditions (at 24/16°, day/night; 14 hours light; 65% humidity) and watered twice daily. After 13 days, the test was evaluated (5=total damage to plant; 0=no damage to plant).

[2] = test system: Avena fatua (AVEFA); assay: Pre-emergence herbicidal activity, Avena fatua; design: key: 5=total damage to plant; 0=no damage to plant
Experimental: as §1

[3] = test system: Alopecurus myosuroides (ALOMY); assay: Pre-emergence herbicidal activity, Alopecurus myosuroides; design: key: 5=total damage to plant; 0=no damage to plant
Experimental: as §1

[4] = test system: Echinochloa crus-galli (ECHCG); assay: Pre-emergence herbicidal activity, Echinochloa crus-galli; design: key: 5=total damage to plant; 0=no damage to plant
Experimental: as §1

[5] = test system: Lolium perenne (LOLPE); assay: Pre-emergence herbicidal activity, Lolium perenne; design: key: 5=total damage to plant; 0=no damage to plant
Experimental: as §1

[6] = test system: Setaria faberi (SETFA); assay: Pre-emergence herbicidal activity, Setaria faberi; design: key: 5=total damage to plant; 0=no damage to plant
Experimental: as §1

[7] = test system: Triticum aestivium (TRZAW); assay: Post-emergence herbicidal activity, Triticum aestivium; design: key: 5=total damage to plant; 0=no damage to plant
Experimental: (§2) Seeds of a variety of test species were sown in standard soil in pots: Triticum aestivium (TRZAW), Avena fatua (AVEFA), Alopecurus myosuroides (ALOMY), Echinochloa crus-galli (ECHCG), Lolium perenne (LOLPE), Zea Mays (ZEAMX), Abutilon theophrasti (ABUTH), Amaranthus retroflexus (AMARE) and Setaria faberi (SETFA). After 8 days cultivation (post-emergence) under controlled conditions in a glasshouse (at 24/16° C., day/night; 14 hours light; 65% humidity), the plants were sprayed with an aqueous spray solution derived from the formulation of the technical active ingredient in acetone/water (50:50) solution containing 0.5% Tween 20 (polyoxyethelyene sorbitan monolaurate, CAS RN 9005-64-5). The test plants were then grown in a glasshouse under controlled conditions (at 24/16° C., day/night; 14 hours light; 65% humidity) and watered twice daily. After 13 days, the test was evaluated (5=total damage to plant; 0=no damage to plant).

[8] = test system: Avena fatua (AVEFA); assay: Post-emergence herbicidal activity, Avena fatua
Experimental: as §2

[9] = test system: Alopecurus myosuroides (ALOMY); assay: Post-emergence herbicidal activity, Alopecurus myosuroides; design: key: 5=total damage to plant; 0=no damage to plant
Experimental: as §2

[10] = test system: Echinochloa crus-galli (ECHCG); assay: Post-emergence herbicidal activity, Echinochloa crus-galli; design: key: 5=total damage to plant; 0=no damage to plant
Experimental: as §2

[11] = test system: Lolium perenne (LOLPE); assay: Post-emergence herbicidal activity, Lolium perenne
Experimental: as §2

[12] = test system: Setaria faberi (SETFA); assay: Post-emergence herbicidal activity, Setaria faberi; design: key: 5=total damage to plant; 0=no damage to plant
Experimental: as §2

CC(C)(C)OC(=O)Nc1ccc(-c2cncc(C#N)c2)nc1C(F)(F)F [Compound B7]
Control of TRAZW after pre-emergence application (score 0-5) [1]: 0
Control of AVEFA after pre-emergence application (score 0-5) [2]: 1
Control of ALOMY after pre-emergence application (score 0-5) [3]: 0
Control of ECHCG after pre-emergence application (score 0-5) [4]: 2
Control of LOLPE after pre-emergence application (score 0-5) [5]: 1
Control of SETFA after pre-emergence application (score 0-5) [6]: 5
Control of TRAZW after post-emergence application (score 0-5) [7]: 1
Control of AVEFA after post-emergence application (score 0-5) [8]: 4
Control of ALOMY after post-emergence application (score 0-5) [9]: 1
Control of ECHCG after post-emergence application (score 0-5) [10]: 4
Control of LOLPE after post-emergence application (score 0-5) [11]: 2
Control of SETFA after post-emergence application (score 0-5) [12]: 5

C=CCN(C(=O)OC(C)(C)C)c1ccc(-c2cncc(F)c2)nc1C(F)(F)F [Compound B9]
Control of TRAZW after pre-emergence application (score 0-5) [1]: 0
Control of AVEFA after pre-emergence application (score 0-5) [2]: 2
Control of ALOMY after pre-emergence application (score 0-5) [3]: 1
Control of ECHCG after pre-emergence application (score 0-5) [4]: 3
Control of LOLPE after pre-emergence application (score 0-5) [5]: 2
Control of SETFA after pre-emergence application (score 0-5) [6]: 5
Control of TRAZW after post-emergence application (score 0-5) [7]: 1
Control of AVEFA after post-emergence application (score 0-5) [8]: 3
Control of ALOMY after post-emergence application (score 0-5) [9]: 1
Control of ECHCG after post-emergence application (score 0-5) [10]: 5
Control of LOLPE after post-emergence application (score 0-5) [11]: 4
Control of SETFA after post-emergence application (score 0-5) [12]: 5

CC(C)(C)OC(=O)N(CC1CC1)c1ccc(-c2cncc(F)c2)nc1C(F)(F)F [Compound B10]
Control of TRAZW after pre-emergence application (score 0-5) [1]: 0
Control of AVEFA after pre-emergence application (score 0-5) [2]: 2
Control of ALOMY after pre-emergence application (score 0-5) [3]: 1
Control of ECHCG after pre-emergence application (score 0-5) [4]: 3
Control of LOLPE after pre-emergence application (score 0-5) [5]: 1
Control of SETFA after pre-emergence application (score 0-5) [6]: 5
Control of TRAZW after post-emergence application (score 0-5) [7]: 1
Control of AVEFA after post-emergence application (score 0-5) [8]: 3
Control of ALOMY after post-emergence application (score 0-5) [9]: 1
Control of ECHCG after post-emergence application (score 0-5) [10]: 4
Control of LOLPE after post-emergence application (score 0-5) [11]: 3
Control of SETFA after post-emergence application (score 0-5) [12]: 5

COC(=O)CN(C(=O)OC(C)(C)C)c1ccc(-c2cncc(F)c2)nc1C(F)(F)F [Compound B11]
Control of TRAZW after pre-emergence application (score 0-5) [1]: 0
Control of AVEFA after pre-emergence application (score 0-5) [2]: 0
Control of ALOMY after pre-emergence application (score 0-5) [3]: 0
Control of ECHCG after pre-emergence application (score 0-5) [4]: 0
Control of LOLPE after pre-emergence application (score 0-5) [5]: 0
Control of SETFA after pre-emergence application (score 0-5) [6]: 1
Control of TRAZW after post-emergence application (score 0-5) [7]: 0
Control of AVEFA after post-emergence application (score 0-5) [8]: 1
Control of ALOMY after post-emergence application (score 0-5) [9]: 0
Control of ECHCG after post-emergence application (score 0-5) [10]: 2
Control of LOLPE after post-emergence application (score 0-5) [11]: 1
Control of SETFA after post-emergence application (score 0-5) [12]: 3

CSc1cncc(-c2ccc(NC(=O)OC(C)(C)C)c(C)n2)c1 [Compound B12]
Control of TRAZW after pre-emergence application (score 0-5) [1]: 0
Control of AVEFA after pre-emergence application (score 0-5) [2]: 1
Control of ALOMY after pre-emergence application (score 0-5) [3]: 1
Control of ECHCG after pre-emergence application (score 0-5) [4]: 1
Control of LOLPE after pre-emergence application (score 0-5) [5]: 1
Control of SETFA after pre-emergence application (score 0-5) [6]: 3
Control of TRAZW after post-emergence application (score 0-5) [7]: 1
Control of AVEFA after post-emergence application (score 0-5) [8]: 2
Control of ALOMY after post-emergence application (score 0-5) [9]: 1
Control of ECHCG after post-emergence application (score 0-5) [10]: 2
Control of LOLPE after post-emergence application (score 0-5) [11]: 2
Control of SETFA after post-emergence application (score 0-5) [12]: 3

CC#Cc1cncc(-c2ccc(NC(=O)OC(C)(C)C)c(C)n2)c1 [Compound B33]
Control of TRAZW after pre-emergence application (score 0-5) [1]: 0
Control of AVEFA after pre-emergence application (score 0-5) [2]: 2
Control of ALOMY after pre-emergence application (score 0-5) [3]: 0
Control of ECHCG after pre-emergence application (score 0-5) [4]: 2
Control of LOLPE after pre-emergence application (score 0-5) [5]: 1
Control of SETFA after pre-emergence application (score 0-5) [6]: 4
Control of TRAZW after post-emergence application (score 0-5) [7]: 2
Control of AVEFA after post-emergence application (score 0-5) [8]: 4
Control of ALOMY after post-emergence application (score 0-5) [9]: 2
Control of ECHCG after post-emergence application (score 0-5) [10]: 2
Control of LOLPE after post-emergence application (score 0-5) [11]: 3
Control of SETFA after post-emergence application (score 0-5) [12]: 5

CC(C)(C)OC(=O)Nc1ccc(-c2cncc(F)c2)nc1C#N [Compound B34, tert-butyl N-[2-cyano-6-(5-fluoro-3-pyridyl)-3-pyridyl]carbamate]
Control of TRAZW after pre-emergence application (score 0-5) [1]: 0
Control of AVEFA after pre-emergence application (score 0-5) [2]: 0
Control of ALOMY after pre-emergence application (score 0-5) [3]: 0
Control of ECHCG after pre-emergence application (score 0-5) [4]: 4
Control of LOLPE after pre-emergence application (score 0-5) [5]: 1
Control of SETFA after pre-emergence application (score 0-5) [6]: 5
Control of TRAZW after post-emergence application (score 0-5) [7]: 1
Control of AVEFA after post-emergence application (score 0-5) [8]: 2
Control of ALOMY after post-emergence application (score 0-5) [9]: 0
Control of ECHCG after post-emergence application (score 0-5) [10]: 5
Control of LOLPE after post-emergence application (score 0-5) [11]: 1
Control of SETFA after post-emergence application (score 0-5) [12]: 4

C=CCN(C(=O)OC(C)(C)C)c1ccc(-c2cncnc2)nc1C(F)(F)F [Compound B35]
Control of TRAZW after pre-emergence application (score 0-5) [1]: 0
Control of AVEFA after pre-emergence application (score 0-5) [2]: 0
Control of ALOMY after pre-emergence application (score 0-5) [3]: 0
Control of ECHCG after pre-emergence application (score 0-5) [4]: 2
Control of LOLPE after pre-emergence application (score 0-5) [5]: 1
Control of SETFA after pre-emergence application (score 0-5) [6]: 4
Control of TRAZW after post-emergence application (score 0-5) [7]: 1
Control of AVEFA after post-emergence application (score 0-5) [8]: 2
Control of ALOMY after post-emergence application (score 0-5) [9]: 0
Control of ECHCG after post-emergence application (score 0-5) [10]: 3
Control of LOLPE after post-emergence application (score 0-5) [11]: 2
Control of SETFA after post-emergence application (score 0-5) [12]: 5

O=C(NCc1ccc(Cl)cc1)Nc1ccc(-c2cncc(F)c2)nc1C(F)(F)F [Compound B38]
Control of TRAZW after pre-emergence application (score 0-5) [1]: 0
Control of AVEFA after pre-emergence application (score 0-5) [2]: 0
Control of ALOMY after pre-emergence application (score 0-5) [3]: 0
Control of ECHCG after pre-emergence application (score 0-5) [4]: 1
Control of LOLPE after pre-emergence application (score 0-5) [5]: 0
Control of SETFA after pre-emergence application (score 0-5) [6]: 3
Control of TRAZW after post-emergence application (score 0-5) [7]: 0
Control of AVEFA after post-emergence application (score 0-5) [8]: 2
Control of ALOMY after post-emergence application (score 0-5) [9]: 0
Control of ECHCG after post-emergence application (score 0-5) [10]: 2
Control of LOLPE after post-emergence application (score 0-5) [11]: 2
Control of SETFA after post-emergence application (score 0-5) [12]: 4

O=C(Nc1ccc(-c2cncc(F)c2)nc1C(F)(F)F)N1CCOCC1 [Compound B39]
Control of TRAZW after pre-emergence application (score 0-5) [1]: 0
Control of AVEFA after pre-emergence application (score 0-5) [2]: 3
Control of ALOMY after pre-emergence application (score 0-5) [3]: 0
Control of ECHCG after pre-emergence application (score 0-5) [4]: 4
Control of LOLPE after pre-emergence application (score 0-5) [5]: 1
Control of SETFA after pre-emergence application (score 0-5) [6]: 5
Control of TRAZW after post-emergence application (score 0-5) [7]: 1
Control of AVEFA after post-emergence application (score 0-5) [8]: 4
Control of ALOMY after post-emergence application (score 0-5) [9]: 1
Control of ECHCG after post-emergence application (score 0-5) [10]: 5
Control of LOLPE after post-emergence application (score 0-5) [11]: 3
Control of SETFA after post-emergence application (score 0-5) [12]: 5

CC(C)c1cc(NC(=O)Nc2ccc(-c3cncc(F)c3)nc2C(F)(F)F)on1 [Compound B40]
Control of TRAZW after pre-emergence application (score 0-5) [1]: 0
Control of AVEFA after pre-emergence application (score 0-5) [2]: 0
Control of ALOMY after pre-emergence application (score 0-5) [3]: 0
Control of ECHCG after pre-emergence application (score 0-5) [4]: 1
Control of LOLPE after pre-emergence application (score 0-5) [5]: 1
Control of SETFA after pre-emergence application (score 0-5) [6]: 1
Control of TRAZW after post-emergence application (score 0-5) [7]: 0
Control of AVEFA after post-emergence application (score 0-5) [8]: 2
Control of ALOMY after post-emergence application (score 0-5) [9]: 0
Control of ECHCG after post-emergence application (score 0-5) [10]: 1
Control of LOLPE after post-emergence application (score 0-5) [11]: 1
Control of SETFA after post-emergence application (score 0-5) [12]: 3
